Measurements from patent US20080221116A1, “ISOXAZOLINE ALPHA 1a/1d ADRENORECEPTOR ANTAGONISTS” (priority 2006, published 2008).
pKi: −log10 of the molar value. Values joined by “and” are separate entries in the source; they are usually repeats but may differ in a detail not shown here. Equal entries are not always repeated. Where two headings read alike, the source gives them in different places.

What was measured:
Conditions in all cases: COS-7 membranes
[1] = molecular target: T1, α1b-AR (Homo sapiens, UniProt P35368); experiment: α1-Adrenergic Receptor Binding Assay, 125I-HEAT radio-ligand binding, transfected COS-7 cell membranes, α1b subtype
T1 construct: expressed in transfected cells; host or cells: COS-7 cells (African Green monkey kidney), membranes
T1 sequence (P35368 1-520): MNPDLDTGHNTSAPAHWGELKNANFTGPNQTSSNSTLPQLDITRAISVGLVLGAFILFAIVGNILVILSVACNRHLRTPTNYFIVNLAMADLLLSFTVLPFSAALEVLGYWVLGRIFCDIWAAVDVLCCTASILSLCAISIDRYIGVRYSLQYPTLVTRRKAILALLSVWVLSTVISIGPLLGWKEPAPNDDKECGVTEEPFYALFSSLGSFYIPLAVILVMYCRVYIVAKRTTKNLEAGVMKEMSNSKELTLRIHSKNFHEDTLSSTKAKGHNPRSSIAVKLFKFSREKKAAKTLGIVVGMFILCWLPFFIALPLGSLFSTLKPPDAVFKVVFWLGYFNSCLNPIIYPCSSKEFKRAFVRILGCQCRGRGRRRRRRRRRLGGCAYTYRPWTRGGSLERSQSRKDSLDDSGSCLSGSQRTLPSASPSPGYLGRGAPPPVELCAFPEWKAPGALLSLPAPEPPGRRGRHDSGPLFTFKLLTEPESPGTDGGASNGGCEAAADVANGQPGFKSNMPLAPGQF
Description: (§1) Membranes were prepared from COS-7 cells (African Green monkey kidney SV40-transformed cells) that had been transfected with one of the three α1-AR subtypes by the following method: COS cells from ten 100 mm tissue culture plates were scraped into a 5 ml volume of TE (a mixture of 50 mM tris(hydroxymethyl)aminomethane hydrochloride (Tris-HCl) and 5 mM ethylenediaminetetraacetic acid (EDTA) at pH 7.4). The cell suspension was disrupted with a Brinkman Polytron (at a setting of 8) for 10 sec. The disrupted cells were centrifuged at 1000×g for 10 min at 4° C. Supernatants were centrifuged at 34,500×g for 20 min at 4° C. The membrane pellets were suspended in a 2 ml volume of TNE (a mixture of 50 mM Tris-HCl, 5 mM EDTA and 150 mM NaCl at pH7.4). An aliquot of the membrane suspension was stored at −70° C. until use. The protein concentration was determined using a BioRad “DC” protein assay kit following membrane solubilization with Triton X-100.
(§2) Triplicate determinations of radio-ligand binding in the presence of increasing concentrations of testing compound were made. The reagents were added to 96-well polypropylene plate wells. Each assay well contained 140 μL TNE, 25 μL 125′-2-(β-4-hydroxyphenyl)ethylaminomethyltetralone (^125I-HEAT) (specific activity 2200 Ci/mmol, Dupont-New England Nuclear, […] final), 10 μL testing compound dissolved in dimethyl sulfoxide (DMSO) ([…] to 10 μM in half-log increments, final), and 25 μL appropriate α1-AR membrane subtype suspension in TNE (0.5 ng/μL for the α1a and α1b subtypes and 13 ng/μL for the α1d subtype). The plate was incubated at rt for 1 hr. The contents of the wells were filtered through a glass filter (type C) (GF/C) membrane Unifilter plate (Packard Instruments) using the Packard Filtermate cell harvester. The filter plates were dried in a vacuum oven for 30 min at 40° C. 25 μL Microscint 20 liquid scintillation fluid (Packard Instuments) was added to each well. The radioactive content was analyzed in the TopCount microplate scintillation counter (Packard Instruments).
(§3) The Ki values (in nM) shown in Table 1 were determined using GraphPad Prism software.

[2] = molecular target: T2, α1d-AR (Homo sapiens, UniProt P25100); experiment: α1-Adrenergic Receptor Binding Assay, 125I-HEAT radio-ligand binding, transfected COS-7 cell membranes, α1d subtype
T2 construct: expressed in transfected cells; host or cells: COS-7 cells (African Green monkey kidney), membranes
T2 sequence (P25100 1-572): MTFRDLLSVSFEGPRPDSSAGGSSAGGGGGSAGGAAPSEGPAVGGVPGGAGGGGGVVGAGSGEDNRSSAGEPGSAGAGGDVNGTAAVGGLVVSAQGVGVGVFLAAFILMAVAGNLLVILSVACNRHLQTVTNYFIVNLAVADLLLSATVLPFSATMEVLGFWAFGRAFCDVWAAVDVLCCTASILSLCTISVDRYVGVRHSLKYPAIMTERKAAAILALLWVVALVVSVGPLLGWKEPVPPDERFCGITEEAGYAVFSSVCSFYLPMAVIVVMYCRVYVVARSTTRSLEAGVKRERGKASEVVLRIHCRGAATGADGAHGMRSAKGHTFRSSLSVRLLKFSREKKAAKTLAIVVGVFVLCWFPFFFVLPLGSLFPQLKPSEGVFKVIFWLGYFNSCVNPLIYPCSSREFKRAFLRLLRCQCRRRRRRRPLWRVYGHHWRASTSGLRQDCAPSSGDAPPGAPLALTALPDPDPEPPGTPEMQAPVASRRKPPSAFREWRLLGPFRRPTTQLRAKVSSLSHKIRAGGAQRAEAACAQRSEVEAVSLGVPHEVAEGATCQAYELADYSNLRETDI
Description: as §1, §2, §3

[3] = molecular target: T3, α1a-AR (Homo sapiens, UniProt P35348); experiment: α1-Adrenergic Receptor Binding Assay, 125I-HEAT radio-ligand binding, transfected COS-7 cell membranes, α1a subtype
T3 construct: expressed in transfected cells; host or cells: COS-7 cells (African Green monkey kidney), membranes
T3 sequence (P35348 1-466): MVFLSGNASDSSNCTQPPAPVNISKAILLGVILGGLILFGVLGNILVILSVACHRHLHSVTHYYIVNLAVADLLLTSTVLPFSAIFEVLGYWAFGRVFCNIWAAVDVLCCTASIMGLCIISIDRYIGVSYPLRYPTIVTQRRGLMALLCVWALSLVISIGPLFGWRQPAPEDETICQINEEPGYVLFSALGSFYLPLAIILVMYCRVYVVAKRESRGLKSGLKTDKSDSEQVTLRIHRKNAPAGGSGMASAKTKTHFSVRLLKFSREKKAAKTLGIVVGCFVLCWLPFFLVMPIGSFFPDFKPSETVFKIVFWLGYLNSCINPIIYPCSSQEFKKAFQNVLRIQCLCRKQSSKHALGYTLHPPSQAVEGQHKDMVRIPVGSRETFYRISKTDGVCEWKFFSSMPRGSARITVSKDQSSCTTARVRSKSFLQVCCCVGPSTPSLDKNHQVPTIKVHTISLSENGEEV
Description: as §1, §2, §3

[4] = average value, read-out: Alpha 1 Ki α1b (1) Average Value
[5] = individual values, read-out: Alpha 1 Ki α1b (2) Individual Values
[6] = average value, read-out: Alpha 1 Ki α1d (1) Average Value
[7] = individual values, read-out: Alpha 1 Ki α1d (2) Individual Values
[8] = average value, read-out: Alpha 1 Ki α1a (1) Average Value
[9] = individual values, read-out: Alpha 1 Ki α1a (2) Individual Values

Row | pKi [1, 4] | pKi [1, 5] | pKi [2, 6] | pKi [2, 7] | pKi [3, 8] | pKi [3, 9] | SMILES
1 | 6.72 |  | 7.04 |  | 7.42 |  | CC(C)Oc1ccccc1N1CCN(CC2CC(C(=O)N3CCc4ccccc43)=NO2)CC1 (single isomer, unassigned) [Compound 36, (2,3-dihydro-indol-1-yl)-{(5S*)-5-[4-(2-isopropoxy-phenyl)-piperazin-1-ylmethyl]-4,5-dihydro-isoxazol-3-yl}-methanone]
2 | 7.43 | 7.43 | 9.55 | 9.55 | 9.27 | 9.27 | CC(C)Oc1ccccc1N1CCN(CC2CC(C(=O)N3CCc4ccccc43)=NO2)CC1 (single isomer, unassigned) [Compound 37, (2,3-dihydro-indol-1-yl)-{(5R*)-5-[4-(2-isopropoxy-phenyl)-piperazin-1-ylmethyl]-4,5-dihydro-isoxazol-3-yl}-methanone]
3 | 6.27 | 6.27 | 8.34 | 8.34 | 8.19 | 8.19 | CC(C)Oc1ccccc1N1CCN(CC2CC(C(=O)N3CCC(C(=O)c4ccc(F)cc4)CC3)=NO2)CC1 (single isomer, unassigned) [Compound 40, [4-(4-fluoro-benzoyl)-piperidin-1-yl]-{(5S*)-5-[4-(2-isopropoxy-phenyl)-piperazin-1-ylmethyl]-4,5-dihydro-isoxazol-3-yl}-methanone]
4 | 5.77 | 5.77 | 7.24 | 7.24 | 6.62 | 6.62 | CC(C)Oc1ccccc1N1CCN(CC2CC(C(=O)N3CCC(C(=O)c4ccc(F)cc4)CC3)=NO2)CC1 (single isomer, unassigned) [Compound 41, [4-(4-fluoro-benzoyl)-piperidin-1-yl]-{(5R*)-5-[4-(2-isopropoxy-phenyl)-piperazin-1-ylmethyl]-4,5-dihydro-isoxazol-3-yl}-methanone]
5 | 5.97 | 5.97 | 6.99 | 6.99 | 6.50 | 6.50 | CC(C)Oc1ccccc1N1CCN(CC2CC(C(=O)N3CC(C)(C)c4cc(Br)ccc43)=NO2)CC1 (single isomer, unassigned) [Compound 43, (5-bromo-3,3-dimethyl-2,3-dihydro-indol-1-yl)-{(5S*)-5-[4-(2-isopropoxy-phenyl)-piperazin-1-ylmethyl]-4,5-dihydro-isoxazol-3-yl}-methanone]
6 | 6.28 | 6.28 | 7.70 | 7.70 | 8.63 | 8.63 | CC(C)Oc1ccccc1N1CCN(CC2CC(C(=O)N3CCOCC3)=NO2)CC1 (single isomer, unassigned) [Compound 44, {(5S*)-5-[4-(2-isopropoxy-phenyl)-piperazin-1-ylmethyl]-4,5-dihydro-isoxazol-3-yl}-morpholin-4-yl-methanone]

Continued, molecule first:

Row | SMILES | pKi [1, 4] | pKi [1, 5] | pKi [2, 6] | pKi [2, 7] | pKi [3, 8] | pKi [3, 9]
7 | CC(C)Oc1ccccc1N1CCN(CC2CC(CN3CCCCC3=O)=NO2)CC1 (single isomer, unassigned) [Compound 2, 1-{(5R*)-5-[4-(2-isopropoxy-phenyl)-piperazin-1-ylmethyl]-4,5-dihydro-isoxazol-3-ylmethyl}-piperidin-2-one] | 7.27 | 7.10 and 7.39 and 7.25 and 7.42 | 8.35 | 8.28 and 8.33 and 8.24 and 8.64 | 9.10 | 9.00 and 9.15 and 9.07 and 9.22
8 | CC(C)Oc1ccccc1N1CCN(CC2CC(CN3CCCCC3=O)=NO2)CC1 (single isomer, unassigned) [Compound 3, 1-{(5S*)-5-[4-(2-isopropoxy-phenyl)-piperazin-1-ylmethyl]-4,5-dihydro-isoxazol-3-ylmethyl}-piperidin-2-one] | 6.67 | 6.67 | 7.70 | 7.70 | 8.60 | 8.60
9 | CC(C)Oc1ccccc1N1CCN(CC2CC(C(=O)N3CCC(Oc4ccccc4)CC3)=NO2)CC1 (single isomer, unassigned) [Compound 38, {(5R*)-5-[4-(2-isopropoxy-phenyl)-piperazin-1-ylmethyl]-4,5-dihydro-isoxazol-3-yl}-(4-phenoxy-piperidin-1-yl)-methanone] | 6.19 | 6.19 | 7.26 | 7.26 | 6.88 | 6.88
10 | CC(C)Oc1ccccc1N1CCN(CC2CC(C(=O)N3CCC(Oc4ccccc4)CC3)=NO2)CC1 (single isomer, unassigned) [Compound 39, {(5S*)-5-[4-(2-isopropoxy-phenyl)-piperazin-1-ylmethyl]-4,5-dihydro-isoxazol-3-yl}-(4-phenoxy-piperidin-1-yl)-methanone] | 6.66 | 6.65 and 6.68 | 8.07 | 7.98 and 8.17 | 8.80 | 8.85 and 8.74
11 | CC(C)Oc1ccccc1N1CCN(CC2CC(C(=O)N3CC(C)(C)c4cc(Br)ccc43)=NO2)CC1 (single isomer, unassigned) [Compound 42, (5-bromo-3,3-dimethyl-2,3-dihydro-indol-1-yl)-{(5R*)-5-[4-(2-isopropoxy-phenyl)-piperazin-1-ylmethyl]-4,5-dihydro-isoxazol-3-yl}-methanone] | 6.54 | 6.54 | 9.36 | 9.36 | 8.23 | 8.23
12 | CC(C)Oc1ccccc1N1CCN(CC2CC(C(=O)N3CCOCC3)=NO2)CC1 (single isomer, unassigned) [Compound 45, {(5R*)-5-[4-(2-Isopropoxy-phenyl)-piperazin-1-ylmethyl]-4,5-dihydro-isoxazol-3-yl}-morpholin-4-yl-methanone] | 5.97 | 5.97 | 6.53 | 6.53 | 7.14 | 7.14
